{
  "source": "patent US12661348B2",
  "about": "“Systemic formulation of a pyridinone derivate for TG2-related diseases” (Dr. Falk Pharma GmbH, priority 2020, dated 2026)",
  "key": {"[1]": {"target": "T1, TG2 (Mus musculus, UniProt P21981)", "T1 construct": "The immune-histochemical localisation of the complex of compound of formula (I) and TG2 in the kidney tissue; from tissue; host or cells: kidney tissue of UUO C57BL/6 mice", "T1 sequence (P21981 1-686)": "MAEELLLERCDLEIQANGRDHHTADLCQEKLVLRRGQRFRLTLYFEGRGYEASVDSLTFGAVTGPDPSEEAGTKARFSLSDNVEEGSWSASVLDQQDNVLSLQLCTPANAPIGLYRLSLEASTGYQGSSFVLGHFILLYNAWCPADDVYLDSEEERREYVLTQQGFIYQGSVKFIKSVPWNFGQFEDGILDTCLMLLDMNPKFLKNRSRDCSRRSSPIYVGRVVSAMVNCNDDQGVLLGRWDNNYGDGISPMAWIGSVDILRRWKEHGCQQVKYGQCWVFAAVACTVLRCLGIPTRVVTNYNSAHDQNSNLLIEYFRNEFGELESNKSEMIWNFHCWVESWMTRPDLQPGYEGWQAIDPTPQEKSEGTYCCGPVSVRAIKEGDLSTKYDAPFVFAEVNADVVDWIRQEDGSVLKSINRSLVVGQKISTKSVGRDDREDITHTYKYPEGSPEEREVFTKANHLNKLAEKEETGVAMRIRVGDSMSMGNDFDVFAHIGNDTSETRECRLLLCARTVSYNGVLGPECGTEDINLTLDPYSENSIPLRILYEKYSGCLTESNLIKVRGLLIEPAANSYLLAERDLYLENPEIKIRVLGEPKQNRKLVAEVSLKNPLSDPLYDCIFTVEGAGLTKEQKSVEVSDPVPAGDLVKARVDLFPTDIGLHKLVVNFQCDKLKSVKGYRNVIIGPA", "assay": "Immune-histochemical localisation of the complex of compound and TG2 in kidney tissue of UUO-mice", "assay_type": "in vivo, C57BL/6-mouse", "settings": "oral, different dosages, compound-specific antibody", "description": "Groups of 8 UUO-mice were treated directly after ligation of the ureter over a time period of two weeks with three different dosages of said compound: 100 mg/kg body weight, 300 mg/kg body weight, and 1000 mg/kg body weight. The daily dosage was administered orally as a suspension at intervals of 8 hours. In a control group, the UUO-mice were treated in same way but merely with the vehicle methyl cellulose. After the end of the treatment, the histopathological investigation of the kidney tissue as well as the determination of the amount of hydroxyproline in the kidney was performed. Furthermore, an immune-histochemical localisation of the complex of (S,E)-methyl-7-(1-(2-(2-ethylbutylamino)-2-oxoethyl)-2-oxo-1,2-dihydro-pyridin-3-ylamino)-6-(1-methyl-1H-imidazole-5-carboxamido)-7-oxohept-2-enoate and TG2 by means of (S,E)-methyl-7-(1-(2-(2-ethylbutylamino)-2-oxoethyl)-2-oxo-1,2-dihydro-pyridin-3-ylamino)-6-(1-methyl-1H-imidazole-5-carboxamido)-7-oxohept-2-enoate-specific antibody was carried out."}, "[2]": {"assay": "Pharmacokinetic in healthy volunteers, multiple dosing over 7 days", "assay_type": "in vivo, human", "settings": "up to 100 mg", "description": "The pharmacokinetic of (S,E)-methyl-7-(1-(2-(2-ethylbutylamino)-2-oxoethyl)-2-oxo-1,2-dihydro-pyridin-3-ylamino)-6-(1-methyl-1H-imidazole-5-carboxamido)-7-oxohept-2-enoate (compound of formula (I)) was investigated in healthy volunteers. Cohorts of 18 subjects each were treated with a daily dose of 10, 20, 50 and 100 mg compound of formula (I), respectively over a time period of 7 days. The determination of said compound in blood plasma was performed by means of a previously validated HPLC-MS/MS method."}, "[3]": {"system": "adult patients with Celiac Disease (CeD)", "assay": "6-week treatment of Celiac Disease patients under gluten challenge: ALT, AST, ALP levels", "assay_type": "in vivo, human", "settings": "for ALP, Change from baseline / ALT, Change from baseline / AST, Change from baseline / ALP, Difference versus placebo / ALT, Difference versus placebo / AST, Difference versus placebo: baseline to week 6; for Mean alanine aminotransferase (ALT) level, Baseline / Mean alkaline phosphatase (ALP) level, Baseline / Mean aspartate aminotransferase (AST) level, Baseline / Mean ALP level, Week 6 / Mean ALT level, Week 6 / Mean AST level, Week 6: safety population", "description": "(§1) The efficacy and safety of a 6-week treatment with the compound of formula (I) in the hard gelatine capsule formulation described in example 2 was investigated in 160 adult patients with Celiac Disease (CeD). Patients, who were in clinical and histological remission at start of the study were challenged with 3 grams daily gluten intake and randomized to receive placebo or one of 3 doses of the compound of formula (I), i.e. 10 mg, 50 mg or 100 mg. Each morning after at least 6 hours of fasting, patients took the study drug orally, followed by one biscuit containing 3 g of gluten 30 minutes later, before breakfast. Throughout the 6-week study, patients were required to continue their strict gluten free diet.\nas §1, with “described in the example 2” for “described in example 2”, “gluten free diet (see FIG. 12).” for “gluten free diet.”"}},
  "data": [
    {"smiles": "CCC(CC)CNC(=O)Cn1cccc(NC(=O)[C@H](CC/C=C/C(=O)OC)NC(=O)c2cncn2C)c1=O", "note": "[compound of formula (I), (S,E)-methyl-7-(1-(2-(2-ethylbutylamino)-2-oxoethyl)-2-oxo-1,2-dihydro-pyridin-3-ylamino)-6-(1-methyl-1H-imidazole-5-carboxamido)-7-oxohept-2-enoate]", "values": [
      {"measurement": "immune-histochemical localisation of the complex of compound and TG2 in the kidney tissue", "setting": "[1]", "result": "reach the target site and inhibits the target molecule"},
      {"measurement": "systemic exposure in human versus dose", "setting": "[2]", "result": "increases linearly"},
      {"measurement": "ALP, Change from baseline", "setting": "[3]; 10 mg (N = 41)", "result": "−1.0", "unit": "U/L"},
      {"measurement": "ALT, Change from baseline", "setting": "[3]; 10 mg (N = 41)", "result": "−0.5", "unit": "U/L"},
      {"measurement": "AST, Change from baseline", "setting": "[3]; 10 mg (N = 41)", "result": 0, "unit": "U/L"},
      {"measurement": "Mean alanine aminotransferase (ALT) level, Baseline", "setting": "[3]; 10 mg (N = 41)", "result": 20.5, "unit": "U/L"},
      {"measurement": "Mean alkaline phosphatase (ALP) level, Baseline", "setting": "[3]; 10 mg (N = 41)", "result": 60.0, "unit": "U/L"},
      {"measurement": "Mean aspartate aminotransferase (AST) level, Baseline", "setting": "[3]; 10 mg (N = 41)", "result": 22.5, "unit": "U/L"},
      {"measurement": "Mean ALP level, Week 6", "setting": "[3]; 10 mg (N = 41)", "result": 59.3, "unit": "U/L"},
      {"measurement": "Mean ALT level, Week 6", "setting": "[3]; 10 mg (N = 41)", "result": 20.0, "unit": "U/L"},
      {"measurement": "Mean AST level, Week 6", "setting": "[3]; 10 mg (N = 41)", "result": 22.5, "unit": "U/L"},
      {"measurement": "Mean ALT level, Week 10 (Follow-up)", "setting": "[3]; 10 mg (N = 41)", "result": 19.7, "unit": "U/L"},
      {"measurement": "Mean AST level, Week 10 (Follow-up)", "setting": "[3]; 10 mg (N = 41)", "result": 20.6, "unit": "U/L"},
      {"measurement": "ALP, Difference versus placebo", "setting": "[3]; 10 mg versus placebo", "result": "−2.6", "unit": "U/L"},
      {"measurement": "ALT, Difference versus placebo", "setting": "[3]; 10 mg versus placebo, P value 0.0019", "result": "−4.4", "unit": "U/L"},
      {"measurement": "AST, Difference versus placebo", "setting": "[3]; 10 mg versus placebo, P value 0.0448", "result": "−3.2", "unit": "U/L"},
      {"measurement": "ALP, Change from baseline", "setting": "[3]; 50 mg (N = 41)", "result": "−0.5", "unit": "U/L"},
      {"measurement": "ALT, Change from baseline", "setting": "[3]; 50 mg (N = 41)", "result": 0.8, "unit": "U/L"},
      {"measurement": "AST, Change from baseline", "setting": "[3]; 50 mg (N = 41)", "result": 1.0, "unit": "U/L"},
      {"measurement": "Mean alanine aminotransferase (ALT) level, Baseline", "setting": "[3]; 50 mg (N = 41)", "result": 21.4, "unit": "U/L"},
      {"measurement": "Mean alkaline phosphatase (ALP) level, Baseline", "setting": "[3]; 50 mg (N = 41)", "result": 57.8, "unit": "U/L"},
      {"measurement": "Mean aspartate aminotransferase (AST) level, Baseline", "setting": "[3]; 50 mg (N = 41)", "result": 22.6, "unit": "U/L"},
      {"measurement": "Mean ALP level, Week 6", "setting": "[3]; 50 mg (N = 41)", "result": 57.3, "unit": "U/L"},
      {"measurement": "Mean ALT level, Week 6", "setting": "[3]; 50 mg (N = 41)", "result": 22.2, "unit": "U/L"},
      {"measurement": "Mean AST level, Week 6", "setting": "[3]; 50 mg (N = 41)", "result": 23.6, "unit": "U/L"},
      {"measurement": "Mean ALT level, Week 10 (Follow-up)", "setting": "[3]; 50 mg (N = 41)", "result": 21.7, "unit": "U/L"},
      {"measurement": "Mean AST level, Week 10 (Follow-up)", "setting": "[3]; 50 mg (N = 41)", "result": 21.9, "unit": "U/L"},
      {"measurement": "ALP, Difference versus placebo", "setting": "[3]; 50 mg versus placebo", "result": "−2.8", "unit": "U/L"},
      {"measurement": "ALT, Difference versus placebo", "setting": "[3]; 50 mg versus placebo, P value 0.0069", "result": "−3.8", "unit": "U/L"},
      {"measurement": "AST, Difference versus placebo", "setting": "[3]; 50 mg versus placebo, P value 0.1423", "result": "−2.2", "unit": "U/L"},
      {"measurement": "ALP, Change from baseline", "setting": "[3]; 100 mg (N = 40)", "result": "−0.5", "unit": "U/L"},
      {"measurement": "ALT, Change from baseline", "setting": "[3]; 100 mg (N = 40)", "result": "−2.6", "unit": "U/L"},
      {"measurement": "AST, Change from baseline", "setting": "[3]; 100 mg (N = 40)", "result": "−0.4", "unit": "U/L"},
      {"measurement": "Mean alanine aminotransferase (ALT) level, Baseline", "setting": "[3]; 100 mg (N = 40)", "result": 26.3, "unit": "U/L"},
      {"measurement": "Mean alkaline phosphatase (ALP) level, Baseline", "setting": "[3]; 100 mg (N = 40)", "result": 62.7, "unit": "U/L"},
      {"measurement": "Mean aspartate aminotransferase (AST) level, Baseline", "setting": "[3]; 100 mg (N = 40)", "result": 26.8, "unit": "U/L"},
      {"measurement": "Mean ALP level, Week 6", "setting": "[3]; 100 mg (N = 40)", "result": 62.3, "unit": "U/L"},
      {"measurement": "Mean ALT level, Week 6", "setting": "[3]; 100 mg (N = 40)", "result": 23.7, "unit": "U/L"},
      {"measurement": "Mean AST level, Week 6", "setting": "[3]; 100 mg (N = 40)", "result": 26.5, "unit": "U/L"},
      {"measurement": "Mean ALT level, Week 10 (Follow-up)", "setting": "[3]; 100 mg (N = 40)", "result": 23.9, "unit": "U/L"},
      {"measurement": "Mean AST level, Week 10 (Follow-up)", "setting": "[3]; 100 mg (N = 40)", "result": 24.3, "unit": "U/L"},
      {"measurement": "ALP, Difference versus placebo", "setting": "[3]; 100 mg versus placebo", "result": "−2.8", "unit": "U/L"},
      {"measurement": "ALT, Difference versus placebo", "setting": "[3]; 100 mg versus placebo, P value 0.0022", "result": "−4.3", "unit": "U/L"},
      {"measurement": "AST, Difference versus placebo", "setting": "[3]; 100 mg versus placebo, P value 0.8551", "result": 0.3, "unit": "U/L"},
      {"measurement": "elevation of alanine aminotransferase (ALT) from baseline to week 6", "setting": "[3]; 10, 50, 100 mg groups, gluten challenge, elevation seen in placebo group", "result": "not observed"},
      {"measurement": "difference between each drug group and placebo in ALT", "setting": "[3]; P<0.01 for all comparisons", "result": "statistically significant"},
      {"measurement": "levels of AST, ALT, total protein", "setting": "[3]; oral, doses of 10, 50 and 100 mg in human", "result": "significantly reduced"}
    ]}
  ]
}
